Reference: US20160183527A1, “FUNGICIDAL COMPOSITIONS” (Dow AgroSciences LLC, priority 2014, published 2016)

Columns and labels:
Type in all cases: physicochemical
[1] = Solubility of Compound A and prothioconazole in benzyl acetate/AMD810 blends at 10° C. (HPLC); details: both actives saturated
Procedure: A study of the Compound A and prothioconazole solubility in blends of benzyl acetate/AMD810 was conducted. To each solvent blend both actives were added until each was saturated and the resulting mixtures were then stored at 10° C. until equilibrium was obtained. Aliquots of the supernatant layer were taken from each sample, filtered (0.45 μm mesh) and analyzed by HPLC to determine the solution concentration of each active in the blends.

[2] = Accelerated storage stability, 54° C. for 2 weeks (HPLC); details: 2 weeks at 54° C.
Procedure: Sample 1 was stored at 54° C. for 2 weeks in a closed container.
Sample 6 was stored at 54° C. for 2 weeks in a closed container.
Sample 7 was stored at 54° C. for 2 weeks in a closed container.

[3] = Approximate (relative) solubility of active ingredients in organic solvents at ambient temperature; details: 0.2 g of Compound A mixed with 1.38 g of cyclohexanone
Procedure: The approximate solubility of Compound A was determined by mixing a known mass of the active ingredient with an increasing mass of each solvent at ambient temperature. […] The solubility of Compound A in the solvents used in this screening procedure was generally classified within the following concentration ranges: […]

Question: With `COc1ccnc(C(=O)N[C@H]2COC(=O)[C@H](Cc3ccccc3)[C@@H](OC(=O)C(C)C)[C@H](C)OC2=O)c1OCOC(=O)C(C)C` [Compound A, propanoic acid, 2-methyl-, [[4-methoxy-2-[[[(3S,7R,8R,9S)-9-methyl-8-(2-methyl-1-oxopropoxy)-2,6-dioxo-7-(phenylmethyl)-1,5-dioxonan-3-yl]amino]carbonyl]-3-pyridinyl]oxy]methyl ester] as the molecule, how does the “Compound A Solubility at 10° C.” value ([1]; benzyl acetate 0 wt % in benzyl acetate/AMD810 blend) read?
Answer: 3.3 % w/w

Question: What about the “Compound A Solubility at 10° C.” value ([1]; benzyl acetate 20 wt % in benzyl acetate/AMD810 blend) of the same molecule?
Answer: 4.3 % w/w

Question: And the “Compound A Solubility at 10° C.” value ([1]; benzyl acetate 40 wt % in benzyl acetate/AMD810 blend)?
Answer: 6.5 % w/w

Question: What about the “Compound A Solubility at 10° C.” value ([1]; benzyl acetate 60 wt % in benzyl acetate/AMD810 blend) of the same molecule?
Answer: 11.0 % w/w

Question: What about the “Compound A Solubility at 10° C.” value ([1]; benzyl acetate 80 wt % in benzyl acetate/AMD810 blend) of the same molecule?
Answer: 12.0 % w/w

Question: What about the “Compound A after Storage (% retention)” value ([2]; composition wt %: Compound A 3.4, AMD 810 96.0, third solvent none) of the same molecule?
Answer: 49^ % retention

Question: And the “Compound A after Storage (% retention)” value ([2]; composition wt %: Compound A 4.9, benzyl acetate 94.1, third solvent none)?
Answer: 85^ % retention

Question: And the “Compound A after Storage (% retention)” value ([2]; composition wt %: Compound A 12.0, cyclohexanone 85.7)?
Answer: 96^ % retention

Question: What about the “Compound A after Storage (% retention)” value ([2]; wt %: Compound A 4.9, pyraclostrobin 6.3, benzyl acetate 41.2, AMD 810 22.2, cyclohexanone 9.8) of the same molecule?
Answer: 98^ % retention

Question: And the “Compound A after Storage (% retention)” value ([2]; wt %: Compound A 5.0, pyraclostrobin 6.4, benzyl acetate 40.9, AMD 810 22.0, 2-ethyl hexanol 10.0)?
Answer: 95^ % retention

Question: What about the “Compound A after Storage (% retention)” value ([2]; wt %: Compound A 7.7, pyraclostrobin 9.8, benzyl acetate 37.1, AMD 810 20.0, cyclohexanone 9.6) of the same molecule?
Answer: 97^ % retention

Question: What about the “Compound A after Storage (% retention)” value ([2]; wt %: Compound A 7.8, pyraclostrobin 9.9, benzyl acetate 36.7, AMD 810 19.8, 2-ethyl hexanol 9.7) of the same molecule?
Answer: 97^ % retention

Question: What about the “Compound A content of clear solution in cyclohexanone” value [3] of the same molecule?
Answer: 12.6 % w/w
